Our source for the Activity values is ChEMBL document CHEMBL1287704, “Synthesis and biological evaluation of novel leonurine-SPRC conjugate as cardioprotective agents” (Bioorg Med Chem Lett, 2010).

Format in all cases: functional, cell-based
Test [1] can be described thus: Cardioprotective activity against hypoxia-induced neonatal rat ventricular myocytes damage assessed as increase in hydrogen sulfide level at 10 uM treated 12 hrs before hypoxia challenge measured after 5 hrs. The settings on record: Ventricular myocyte.
The test system of test [2] is Ventricular myocyte. Kind of test: Cardioprotective activity against hypoxia-induced neonatal rat ventricular myocytes damage assessed as increased cell viability at 10 uM treated 12 hrs before hypoxia challenge measured after 5 hrs by MTT assay. Background: Tetrazolium assays rely on reduction of a dye to a coloured formazan, in cell work by metabolically active cells.

The nature of test [3]: Cardioprotective activity against hypoxia-induced neonatal rat ventricular myocytes damage assessed as decrease of LDH release at 10 uM treated 12 hrs before hypoxia challenge measured after 5 hrs. The settings on record: Ventricular myocyte. For orientation: LDH leaks from cells whose membrane has failed.
Test [4] in a line: Cardioprotective activity against hypoxia-induced neonatal rat ventricular myocytes damage assessed as decrease of creatine kinase release at 10 uM treated 12 hrs before hypoxia challenge measured after 5 hrs. The following applies: Ventricular myocyte.
Test [5] in a line: Cardioprotective activity against hypoxia-induced neonatal rat ventricular myocytes damage assessed as increase in hydrogen sulfide level at 1 uM treated 12 hrs before hypoxia challenge measured after 5 hrs. The following applies: Ventricular myocyte.
The test system of test [6] is Ventricular myocyte. Kind of test: Cardioprotective activity against hypoxia-induced neonatal rat ventricular myocytes damage assessed as increased cell viability at 1 uM treated 12 hrs before hypoxia challenge measured after 5 hrs by MTT assay.
Test [7] is described as follows: Cardioprotective activity against hypoxia-induced neonatal rat ventricular myocytes damage assessed as decrease of LDH release at 1 uM treated 12 hrs before hypoxia challenge measured after 5 hrs. The settings on record: Ventricular myocyte.
Test [8] can be described thus: Cardioprotective activity against hypoxia-induced neonatal rat ventricular myocytes damage assessed as decrease of creatine kinase release at 1 uM treated 12 hrs before hypoxia challenge measured after 5 hrs. The following applies: Ventricular myocyte.
The subject of test [9] is Ventricular myocyte. The experiment in a line: Cardioprotective activity against hypoxia-induced neonatal rat ventricular myocytes damage assessed as increased cell viability at 0.1 uM treated 12 hrs before hypoxia challenge measured after 5 hrs by MTT assay.
Test [10] in a line: Cardioprotective activity against hypoxia-induced neonatal rat ventricular myocytes damage assessed as decrease of LDH release at 0.1 uM treated 12 hrs before hypoxia challenge measured after 5 hrs. The settings on record: Ventricular myocyte.
The nature of test [11]: Cardioprotective activity against hypoxia-induced neonatal rat ventricular myocytes damage assessed as decrease of creatine kinase release at 0.1 uM treated 12 hrs before hypoxia challenge measured after 5 hrs. The following applies: Ventricular myocyte.
A short description of test [12]: Cardioprotective activity against hypoxia-induced neonatal rat ventricular myocytes damage assessed as increase in hydrogen sulfide level at 0.1 uM treated 12 hrs before hypoxia challenge measured after 5 hrs. The following applies: Ventricular myocyte.
Test [13] is described as follows: Cardioprotective activity against hypoxia-induced neonatal rat ventricular myocytes damage assessed as increase in superoxide dismutase activity against 0.1 uM treated 12 hrs before hypoxia challenge measured after 5 hrs. The following applies: Ventricular myocyte.
Test [14] is described as follows: Cardioprotective activity against hypoxia-induced neonatal rat ventricular myocytes damage assessed as decrease in malondialdehyde level at 0.1 uM treated 12 hrs before hypoxia challenge measured after 5 hrs. The following applies: Ventricular myocyte.
A short description of test [15]: Antiapoptotic activity against hypoxia-induced neonatal rat ventricular myocytes damage assessed as decrease in nuclear condensation at 0.1 uM using Hoechst 33258 staining by fluorescence microscopy. The following applies: Ventricular myocyte.
A short description of test [16]: Antiapoptotic activity against hypoxia-induced neonatal rat ventricular myocytes damage assessed as decrease in nuclei-shrunk at 0.1 uM using Hoechst 33258 staining by fluorescence microscopy. The settings on record: Ventricular myocyte.

Molecules are shown by their SMILES. Activity calls are given as the source filed them. The calls are words filed in the database; no cut-off is given here.

Regarding `C#CCSC[C@H](N)C(=O)O`, the Activity in [1] came out at 20.2 µmol/L. In addition, the result (in the test with Ventricular myocyte [2]; in [3]; in [4]) was Active.
In the case of `COc1cc(C(=O)OCCCCNC(=N)N)cc(OC)c1O`, the result in [5] was inactive. The outcome (with Ventricular myocyte [6]; in test [7]; in test [8]) was Active.
Take `C#CCSC[C@H](N)C(=O)Oc1c(OC)cc(C(=O)OCCCCNC(=N)N)cc1OC`: the Activity result with Ventricular myocyte [9] is “Non-toxic”; in [12], 21.5 µmol/L. Moreover, the result in test [10], in test [11], in test [13], in test [14], in test [15] and in [16] was Active. In addition, the result (with Ventricular myocyte [6]; with Ventricular myocyte [2]; in test [7]; in test [3]; in test [8]; in test [4]) was Active.
